| Compound | melting point [°C] |
| --- | --- |
| Cc1cc([N+](=O)[O-])c(NC(C)C)c([N+](=O)[O-])c1NC(C)C | 96 to 97 |
| CC(CCCc1ccc(F)cc1)c1cc(O)c2c3c(c(=O)oc2c1)CCC3 (centres undefined) | 133 to 135 |
| C/C(N)=C/C(=O)OCCOC/C(C)=C/c1ccc(Cc2cccnc2)cc1 | 67 to 70 |
| CN(c1ccccc1)c1nc(N2CCOCC2)nc(-n2ccnc2)n1 | 119 to 120 |
| CC(=O)SCC(Cc1ccccc1)C(=O)Nc1ccc(C(N)=O)cc1 (centres undefined) | 195 to 197 |
| O=C(NCCNCCNC(=O)c1cccc2cc3ccccc3nc12)c1cccc2cc3ccccc3nc12 | 182 to 184 |
| O=C(NC1CCCCC1)OCc1ccccc1[N+](=O)[O-] | 101 to 102 |
| CCNc1ccc(SSc2ccc(NCC)cc2C(=O)NC(C(=O)O)C(C)CC)c(C(=O)NC(C(=O)O)C(C)CC)c1 (centres undefined) | 97 to 100 |
| O=C(O)CNC(=NS(=O)(=O)c1ccccc1)Nc1cccc(Cl)c1 | 218 |
| CCCCCCCCCCCCCCc1ccc(N(CC(=O)OC)CC(=O)OC)cc1 | 160 to 165 |
| N[C@H](C(=O)O)c1ccc(OCCOC2CCCCC2)cc1 | 219 to 220 |
| COc1cc(C(C#Cc2cnc(N)nc2N)OC)cc(OC)c1OC (centres undefined) | 184 to 186 |
| C(#Cc1cnc2ccccc2c1)CCN1CC=C(c2ccccc2)CC1 | 94.3 to 95.8 |
| CCCCCCCCCCOc1ccc(CC(C)NCC(O)c2cccc(Cl)c2)cc1 (centres undefined) | 59 to 61 |
| CN(C=O)C1C(O)CC2C3CCc4cc(O)ccc4C3CCC21C (centres undefined) | 272 to 276 |
| CCOC(=O)c1n[nH]cc1[N+](=O)[O-] | 128 to 130 |
| CCOC(=O)c1c(OCC)cc(C(F)(F)F)nc1C(F)(F)F | 57 to 59 |
| COC(=O)N[C@@H](Cc1ccccc1)[C@H](O)CN1C[C@H]2CCCC[C@H]2C[C@H]1C(=O)NOC(C)(C)C | 194 to 195 |
| CC(C)(C)OC(=O)/C(=C/C1CCCCC1)C(=O)c1ccccc1O | 62 to 65 |
| COc1cc(O)c(C(=O)CC(=O)C(C)(C)C#N)c(OC)c1 | 112 to 113 |

| Compound | melting point [°C] |
| --- | --- |
| Nc1cc2c(cc1Br)-c1cc(Br)c(N)cc1S2(=O)=O | > 355 |
| CC(=O)NNc1ccc(NC(=S)N(C)C)cc1 | 187 to 189 |
| N#Cc1nn(-c2c(Cl)cc(C(F)(F)F)cc2Cl)c(N)c1C1(C(F)(F)F)CC1 | 178 to 179 |
| O=[N+]([O-])c1c(-c2cc(Cl)cc(Cl)c2)[nH]c2c(Cl)cc(Cl)cc12 | 272 to 273 |
| Cn1ncc(C(=O)N2CCCC2)c1C(=O)Nc1ccn2nc(N3CCOCC3)nc2c1 | 210 to 212 |
| Clc1cccc2c(C3CCN(CCCOc4cccc5[nH]ccc45)CC3)c[nH]c12 | 178 to 182 |
| CC(=NNc1ccc(C(F)(F)F)cc1)C(=O)NCc1ccc(Cl)nc1 | 184 |
| O=C(C(=O)c1cccc(I)c1)c1cccc(I)c1 | 127 |
| O=S(=O)(Nc1ccc(Oc2cccc3cccnc23)cc1)c1ccc(Cl)cc1 | 220 |
| O=C(N[C@H]1CC[C@H](CCN2CCN(c3nccc4c3OCC4)CC2)CC1)C1(O)CC1 | 248 |
| O=C(O)c1ccccc1C(=O)NCCCn1ccnc1 | 160 to 162 |
| O=C(c1cnoc1)N1CCCCC1 | 78 to 81 |
| O=C1CCCN1C(=O)c1ccc(O)cc1 | 179 to 182 |
| CC(NC(Nc1cc(C(F)(F)F)cc(C(F)(F)F)c1)=C(C#N)S(=O)(=O)c1ccc(Cl)cc1)C(C)(C)C (centres undefined) | 156 to 158 |
| O=C(Nc1ccc(CNc2nc(Cl)nc3cc(I)ccc23)cc1)c1ccc(Cl)nc1 | 315 |
| COc1cc(OC)cc(N2CCN(C(=O)N(C)c3cc4ccccc4cc3OC)CC2)c1 | 83 to 85 |
| CCOC(=O)C1(c2ccc(Cl)cc2)CCN(C(=O)CC(c2ccccc2)(c2ccccc2)c2ccccc2)CC1 | 95 to 98 |
| CCOC(=O)C(Cc1cccc(OC)c1OCc1ccccc1)(NC(C)=O)C(=O)OCC | 94 to 96 |
| O=C(NN=CC=Cc1ccccc1)c1ccccc1 | 192 to 194 |
| CC12CCC3C(CCC4CC(O)CCC43C)C1CCC2C#CBr (centres undefined) | 165 to 167 |

The next lines start with the values.

| melting point [°C] | Compound |
| --- | --- |
| 134 to 135 | CCCc1nn(-c2ccc(C(F)(F)F)cn2)cc1CCCOc1c(C)cccc1CC(=O)O |
| 219 to 220 | Cn1cc(C(=O)NCc2ccc(Cl)cc2)c(=O)c2cc(CN=[N+]=[N-])ccc21 |
| 114 to 116 | C=CCN(c1ccccc1)c1cc(C(N)=O)c(C(=O)O)cc1N(CC=C)c1ccccc1 |
| 112 to 115 | COc1ccc(OC)c(C=CCN2CCc3nc(N)sc3CC2)c1 |
| 212 to 214 | CCC12CCC(=O)C=C1c1c(cc(OCC(=O)O)c(Cl)c1Cl)C2C (centres undefined) |
| 145 to 146 | CCN(CC)CCNc1ccc(C=O)c2sc3ccc(Br)cc3c(=O)c12 |
| 200 to 201 | N#Cc1cccc2c1[nH]c1ccccc12 |
| 140 to 142 | N#Cc1ccc(Oc2ccc([N+](=O)[O-])c(Oc3ccccc3)c2Cl)cc1 |
| 222 | Cn1c(-c2nnc(Cc3ccc(F)cc3)o2)c(O)c(=O)c2ccccc21 |
| 306 to 309 | CN(C)c1ncnc2[nH]c(-c3ccc(CO)cc3)cc12 |
| 153 to 154 | O=C(O)CC(CC(=O)O)Sc1nc2ccccc2s1 |
| 119 to 120 | Cc1nnc(S)n1-c1ccccc1F |
| 64 | CN(C)CCNC(=O)c1cccc(-c2nnc(CSCCOc3ccccc3)o2)c1 |
| 186 to 187 | N#Cc1cnn(-c2c(Cl)cc(C(F)(F)F)c(Cl)c2Cl)c1N |
| 151 to 153 | CCC1(CC)COC(=O)N1c1nc(-c2ccc(C#N)cc2)c(F)s1 |
| 139 to 140 | CC(=O)N1N=C(c2ccc(NC(=O)CCl)cc2)c2cc3c(cc2CC1C)OCO3 (centres undefined) |
| 337 to 338 | Nc1c(-c2ccccc2)c(=O)[nH]c2cc(Cl)ccc12 |
| 144 to 153 | CCC1(CC)c2cc(Br)ccc2-c2ccc(Br)cc21 |
| 162 | O=C(O)CCCCCCCn1c(-c2ccccc2)nc(-c2ccccc2)c1-c1ccccc1 |
| 168 to 170 | CN1Cc2ccccc2C(=O)c2cc(CC(=O)O)cc(Cl)c21 |

| melting point [°C] | Compound |
| --- | --- |
| 212 to 213 | Cc1sc2c(I)c3ccccc3c(-c3ccc(OS(C)(=O)=O)cc3)c2c1C |
| 261 to 262 | COc1cc2c(cc1OC)-c1ncc(C#N)c(=O)n1CC2 |
| 165 | CCOC(=O)c1c(C)nc2c(C(F)(F)F)cccc2c1O |
| 160 to 161 | O=C(NCC1(c2ccccc2)CCCC1)Nc1ccc(F)cc1F |
| 166 | CCc1nc(C)c(Cc2c(O)ccc3ccccc23)[nH]1 |
| 205 to 207 | CC(C)(C)C(=O)c1c[nH]c2ncc(-n3ccc4ccccc43)nc12 |
| 243 to 244 | CC(C)(C)N1CC(=O)Nc2ccc(C#C[Si](C)(C)C)cc2C1=O |
| 60 to 64 | O=c1c(Cl)c(Cl)cnn1COCc1ccccc1 |
| 65 to 69 | Cc1nc2c(cc1Cl)C(=O)N(C)CC(CCCl)O2 (centres undefined) |
| 298 to 302 | Cc1[nH]c(C)c(-c2ccc(Oc3ccc(OC(F)(F)F)cc3)cc2)c(=O)c1Cl |
| 228 to 229 | CS(=O)(=O)c1ccc(-c2cc(C(F)(F)F)nn2C2CCCCC2)cc1F |
| 161 | CC(C#Cc1ccc(Oc2c(F)cccc2F)o1)N(O)C(N)=O (centres undefined) |
| 177 to 178 | Cc1oc(-c2ccccc2)nc1COc1ccc2cc(CCc3nnn[nH]3)oc2c1 |
| 203 to 205 | CCOc1c(Nc2cc(C3C(C(=O)OC)=C(C)NC(C)=C3C(=O)OC)ccc2F)c(=O)c1=O |
| 143 | Cc1c(C(C)CC(=O)O)n(Cc2ccc(Cl)cc2)c2ccc(F)cc12 (centres undefined) |
| 216 to 218 | CCOc1ccc(-c2nn(C(C)c3oc4ccccc4c(=O)c3-c3cccc(F)c3)c3ncnc(N)c23)cc1F (centres undefined) |
| 88 to 90 | CCON=C(C(C)=NOCc1ccccc1C(=NOC)C(=O)NC)c1ccc(OC[Si](C)(C)c2ccc(F)cc2)cc1 |
| 201 to 203 | O=C1NCNCC1(c1ccccc1)c1ccccn1 (centres undefined) |
| 89 to 99 | CN1C(=S)C(c2ccc(OC(F)(F)F)cc2)(c2cccc(-c3cccnc3F)c2)N=C1N (centres undefined) |
| 268 | Cc1ccc2c(=O)c(O)cn(C)c2c1 |

| melting point [°C] | Compound |
| --- | --- |
| 84 to 85 | CC1(CCO)c2ccccc2-c2ccccc21 |
| 75 | Cc1ccc(S(=O)(=O)OCCN2Cc3ccccc3C2=O)cc1 |
| 92 to 93 | Cc1ccc(Oc2cc(-c3ccc(Br)cc3)oc2-c2ccc(Br)cc2)cc1 |
| 151 to 153 | CC1(O)CC(=O)OC(c2ccc(-c3ccccc3)cc2)C1 (centres undefined) |
| 130 to 131 | Cc1ccc(C2c3c(C)c(N4C(=O)CC(c5ccccc5)C4=O)c(C)c(C)c3OC2(C)C)cc1 (centres undefined) |
| 125 to 130 | Fc1ccc2c(c1)Sc1ccc(C(F)(F)F)cc1C2=C1CCNCC1 |
| 94 to 96 | CCCCn1nc(-c2cc(C(C)(C)C)c(O)c(C(C)(C)C)c2)c2cccnc21 |
| 126 | CCN1CCN(C(=O)c2ccc(-c3cc(-c4n[nH]cc4-c4cccc(C)n4)ccn3)cc2)CC1 |
| 286 to 287 | O=c1[nH]c2cc(Cl)ccc2c(=O)n1S(=O)(=O)c1ccc(Cl)cc1 |
| 199 to 201 | O=C(O)Cc1ccc(NC(=O)CCc2cnn(-c3ccccc3)c2-c2ccccc2)cc1 |
| 205 to 207 | O=c1n(-c2ccccc2)nc2c3c(nc(Cl)n12)CCCC3 |
| 168 to 171 | Cn1c(-c2ccc(-c3cccnc3)cc2)cnc1[C@H](Cc1ccccn1)N(C=O)c1cc2cc(Br)ccc2o1 |
| 202 to 203 | Nc1cccc(N2C(=O)CCCC2c2ccc(Cl)c(Cl)c2)c1 (centres undefined) |
| 170 to 171 | Fc1cccc(Cl)c1-c1nnc2ccc(C(F)(F)F)cn12 |
| 122 to 124 | CS(=O)(=O)c1ccc(-c2[nH]nc(C(=O)CCCO[N+](=O)[O-])c2C2CCCCC2)cc1 |
| 64 to 65 | CCC1(C)CC(S(=O)(=O)Cc2c(F)cccc2F)=NO1 (centres undefined) |
| 90 to 96 | COCCOc1ccc(/C=C/c2cc(/C=C/c3ccc4cc[nH]c4c3)n[nH]2)c(OC)c1 |
| 308 to 311 | O=C(c1ccccc1)c1cc2c3ccccc3[nH]c(=O)n2n1 |
| 99 to 101 | N=C(Nc1cc(Cl)cc(NC(=O)/C=C/c2ccccc2Br)c1)c1ccccc1 |

Reference: a melting point compilation (Tetko et al.; mined from patent text by program, amines drawn as free bases though some values may be those of a salt)
